Entries after “also recorded” stand apart in the source; their conditions may differ.
Key:
[1] = XRPD before and after drying (form stability on drying); assay type: physicochemical; details: wet cake, vacuum drying at RT for about 3 hours
[2] = Phase I PK study, intranasal, cotton rats (plasma, lungs, BAL); assay type: in vivo, Sigmodon hispidus cotton rats
From the text: (§1) Fifty (50) inbred, 6-8 week old, Sigmodon hispidus female and male cotton rats (source: Sigmovir Biosystems, Inc., Rockville MD) were maintained and handled under veterinary supervision in accordance with the National Institutes of Health guidelines and Sigmovir Institutional Animal Care and Use Committee's approved animal study protocol (IACUC Protocol #15). Fifteen animals were used in Phase I and 35 animals in Phase II studies. Each group of 5 animals included 3 females (the first three animals in each group) and 2 males (the last 2 animals in each group). Groups of even number of animals included equal number of males and females. Cotton rats were housed in clear polycarbonate cages and provided with standard rodent chow (Harlan #7004) and tap water ad lib.
To prepare excipient solution, 125 mg of citric acid anhydrous and 972 mg of lactose anhydrous were dissolved in water by adding 6 ml to the powder. The solution was vortexed. Final volume was adjusted to 10 mL with water for final concentration of 65 mM citric acid anhydrous and 284 mM lactose anhydrous. The solution was stored at 4±2° C.
(§2) Step 1. Divided 15 young S. hispidus (6-8 week old) between 3 groups (3 females and 2 males per group). Eartaged, weighed, and eyebleed all animals under isoflurane anesthesia for serum and plasma. Treated all animals intranasally with the solution indicated in Table 8-1 below, 5 0 μl/100 g animal (administered in both nostrils).
(§3) Step 2. Measured weight, collected clinical observations (e.g., changes in appearance, movement, posture), and repeated treatments on all animals as in Step 1.
Step 3. Measured weight, collected clinical observations (e.g., changes in appearance, movement, posture), and repeated treatments on all animals as in Step 1.
Step 4. Measured weight, collected clinical observations (e.g., changes in appearance, movement, posture), and repeated treatments on all animals as in Step 1.
Step 5. Measured weight, collected clinical observations, and repeated treatment on all animals as described in Step 1. After 1 h Step 6, terminally bled one animal from each group, followed by the necropsy with gross pathology examination and collection of BAL (right lung) and lung samples (left lung) for the PK assessment. After 3 h Step 7, terminally bled the second animal from each group, followed by the necropsy with gross pathology examination and collection of BAL and lung samples for the PK assessment.
Step 8. Terminally bled the third animal from each group, followed by the necropsy with gross pathology examination and collection of BAL and lung samples for the PK assessment.
Step 9. […]
Step 10. Measured weight and collected clinical observations on the remaining animals. […]

[3] = Tolerability (weight, clinical observations, gross pathology) in the Phase I study; assay type: in vivo, Sigmodon hispidus cotton rats
From the text: as §1, §2, §3
Step 5. Measured weight, collected clinical observations, and repeated treatment on all animals as described in Step 1. […]

CC(=O)NCC1CCN(Cc2cc(Oc3ccc(N4CCN(CCC(=O)O)CC4)nc3)nc(-c3cc(Cl)cc(Cl)c3)c2)CC1 [Freeform Type C]
form change on drying (XRPD) [1]: transformed to freeform Type A; also recorded: Transferred to freeform Type A after drying at RT

CC(=O)NCC1CCN(Cc2cc(Oc3ccc(N4CCN(CCC(=O)O)CC4)nc3)nc(-c3cc(Cl)cc(Cl)c3)c2)CC1 [Compound (I)]
dose dependence of concentration in plasma and lungs ([2]; 0.1, 0.3, 1 mg/kg, highest level with 1 mg/kg 1 hr post-treatment): dose-dependent effect
persistence of level in plasma and lungs ([2]; after last intranasal dose, depending on the dose): remained elevated for several hours
detection in BALF ([2]; intranasal QD for 5 days, 0.1, 0.3, 1 mg/kg per day): much less so in BALF
detection in plasma and lungs ([2]; intranasal QD for 5 days, 0.1, 0.3, 1 mg/kg per day, 1-24 h after last dose): detectable in the plasma and lungs
noticeable effect (blood clotting) ([3]; highest dose 1 mg/kg/day, one animal, terminal bleed): apparent increase in blood clotting time in one of the animals
tolerability ([3]; intranasal QD for 5 consecutive days, 0.1, 0.3, 1 mg/kg per day): well tolerated

— US20240307374A1, “FORMULATION OF FURIN INHIBITOR FOR INHALATION” (BP ASSET V, INC., priority 2021, published 2024)
